Numbering of substitutions follows the chain as printed.
Tests used:
Format in all cases: cell-based
Conditions in all cases: 24 hours after administration, DC50 = concentration needed for 50% target protein degradation
[1] = biological target: T1, androgen receptor (AR) (Homo sapiens, UniProt P10275, T878A); assay: AR degradation activity in LNCAP cells (Western blot)
T1 construct: endogenous in cells; host or cells: LNCAP
T1 sequence (P10275 1-920 T878A): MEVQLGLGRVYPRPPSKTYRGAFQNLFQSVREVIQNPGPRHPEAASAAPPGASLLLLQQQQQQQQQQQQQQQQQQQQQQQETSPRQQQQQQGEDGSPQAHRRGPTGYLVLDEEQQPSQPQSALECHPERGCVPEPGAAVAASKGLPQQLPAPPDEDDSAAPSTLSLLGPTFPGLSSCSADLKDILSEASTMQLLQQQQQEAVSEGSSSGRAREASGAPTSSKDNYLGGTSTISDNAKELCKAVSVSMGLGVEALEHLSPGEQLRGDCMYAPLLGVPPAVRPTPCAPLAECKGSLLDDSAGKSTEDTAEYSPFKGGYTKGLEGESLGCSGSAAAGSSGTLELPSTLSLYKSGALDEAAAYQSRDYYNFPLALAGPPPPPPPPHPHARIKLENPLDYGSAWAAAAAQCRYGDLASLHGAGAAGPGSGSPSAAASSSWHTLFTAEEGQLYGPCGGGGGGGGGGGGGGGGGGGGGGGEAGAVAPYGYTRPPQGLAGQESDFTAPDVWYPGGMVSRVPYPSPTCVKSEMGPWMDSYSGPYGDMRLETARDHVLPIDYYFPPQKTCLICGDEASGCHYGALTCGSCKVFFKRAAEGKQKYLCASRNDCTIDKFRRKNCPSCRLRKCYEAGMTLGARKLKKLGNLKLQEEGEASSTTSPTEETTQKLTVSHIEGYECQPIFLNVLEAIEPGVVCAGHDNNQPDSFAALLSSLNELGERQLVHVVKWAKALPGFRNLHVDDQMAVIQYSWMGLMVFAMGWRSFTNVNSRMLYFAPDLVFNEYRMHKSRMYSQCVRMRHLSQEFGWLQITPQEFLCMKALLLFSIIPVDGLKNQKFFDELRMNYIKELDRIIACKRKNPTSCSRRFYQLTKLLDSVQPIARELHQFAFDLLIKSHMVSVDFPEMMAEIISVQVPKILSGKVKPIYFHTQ
Method: (§1) LNCAP, VCAP and 22Rv1 cells were plated in 24-well plates at 1.5×10E5 cells/well in the RPMI growth medium containing 10% FBS and 1% Penicillin Streptomycin, and then incubated at 37° C. overnight. The following day, the test compound was administered to the cells by using 1000× compound stock solution prepared in DMSO at various concentrations. After administration of the compound, the cells were then incubated at 37° C. for 24 hours. Upon completion, the cells were washed with PBS and protein was collected in Laemmli sample buffer (1×; VWR International). Proteins in cell lysate were separated by SDS-PAGE and transferred to Odyssey nitrocellulose membranes (Licor) with Iblot® dry blotting transfer system (ThermoFisher). Nonspecific binding was blocked by incubating membranes with Intercept Blocking Buffer (Licor) for 1 hour at room temperature with gentle shaking. The membranes were then incubated overnight at 4° C. with Primary antibodies rabbit anti-AR (1:1,000, Cell Signaling, 5153) and mouse anti-GAPDH (1:5,000, Santa Cruz Biotechnology, sc-47724) diluted in Intercept Blocking Buffer containing 0.1% Tween 20. After washing 3 times with TBS-T, the membranes were incubated with IRDye® 800CW goat anti-mouse IgG (1:20,000, Licor) or IRDye® 800CW goat anti-rabbit IgG (1:20,000, Licor) for 1 hour. After TBS-T washes, membranes were rinsed in TBS and scanned on Odyssey® CLx Imaging System (Licor). The bands were quantified using Image Studio™ Software (Licor).
(§2) Table 4 summarizes the androgen receptor (AR) degradative activity of exemplary compounds in LNCAP, VCAP and 22Rv1 cell lines 24 hours after administration. DC50: compound concentration needed for 50% target protein degradation.

[2] = biological target: T2, androgen receptor (AR) (Homo sapiens, UniProt P10275); assay: AR degradation activity in VCAP cells (Western blot)
T2 construct: endogenous in cells; host or cells: VCAP
T2 sequence (P10275 1-920): T1 sequence (P10275 1-920 T878A) with A878T
Method: as §1, §2

[3] = system: androgen receptor (AR); assay: AR degradation activity in 22Rv1 cells (Western blot)
Method: as §1, §2

Measured: DC50

N#Cc1ccc(O[C@H]2CC[C@H](NC(=O)c3ccc(N4CCC(CN5CCN(c6ccc7c(c6)CN([C@H]6CCC(=O)NC6=O)C7=O)CC5)CC4)nc3)CC2)c2cccnc12 [Compound 3-29, trans-N-(4-((8-cyanoquinolin-5-yl)oxy)cyclohexyl)-6-(4-((4-(2-((S)-2,6-dioxopiperidin-3-yl)-1-oxoisoindolin-5-yl)piperazin-1-yl)methyl)piperidin-1-yl)nicotinamide]
< 10 nM: all assays above

N#Cc1ccc(O[C@H]2CC[C@H](NC(=O)c3ccc(N4CCC(CN5CCN(c6ccc7c(c6)CN([C@H]6CCC(=O)NC6=O)C7=O)CC5)CC4)c(F)c3)CC2)c2cccnc12 [Compound 3-31, trans-N-(4-((8-cyanoquinolin-5-yl)oxy)cyclohexyl)-4-(4-((4-(2-((S)-2,6-dioxopiperidin-3-yl)-1-oxoisoindolin-5-yl)piperazin-1-yl)methyl)piperidin-1-yl)-3-fluorobenzamide]
< 10 nM: all assays above

N#Cc1ccc(OC2CCC(NC(=O)c3ccc(N4CCC(CN5CCN(c6cc7c(cc6F)C(=O)N(C6CCC(=O)NC6=O)C7=O)CC5)CC4)nn3)CC2)c2cccnc12 (stereo not drawn) [Compound 3-36]
< 10 nM: all assays above

— patent US11535606B2, “Substituted quinoline-8-carbonitrile derivatives with androgen receptor degradation activity and uses thereof” (ACCUTAR BIOTECHNOLOGY INC., priority 2019, dated 2022)
